The source of these data is patent publication US8188098B2, “GPR119 receptor agonists” (Hoffmann-La Roche Inc., priority 2008, dated 2012).

The EC50 is the concentration giving half of the maximal effect.

In this assay the target is T1, GPR119 receptor (Mesocricetus auratus, UniProt A0A1U8CD06).
T1 construct: which endogenously express the GPR119 receptor; host or cells: HIT-T15 hamster pancreatic islet cells
T1 sequence (A0A1U8CD06 1-334): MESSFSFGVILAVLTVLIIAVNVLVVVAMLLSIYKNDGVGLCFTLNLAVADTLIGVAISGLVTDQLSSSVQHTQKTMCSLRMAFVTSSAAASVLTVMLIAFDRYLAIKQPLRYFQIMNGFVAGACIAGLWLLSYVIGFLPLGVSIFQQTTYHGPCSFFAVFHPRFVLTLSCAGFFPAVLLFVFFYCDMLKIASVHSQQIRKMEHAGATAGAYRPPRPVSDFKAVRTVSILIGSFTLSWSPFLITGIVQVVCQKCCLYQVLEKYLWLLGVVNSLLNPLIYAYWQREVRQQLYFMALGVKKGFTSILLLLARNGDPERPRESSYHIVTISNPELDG
The assay can be described thus: cAMP assay in HIT-T15 hamster pancreatic islet cells (functional agonist activity). The settings on record: HIT-T15 cells endogenously expressing GPR119; 30 min at 25° C.; intracellular cAMP. It is filed as cell-based. Put shortly:
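cAMP immunoassay with luminescent read-out, EC50 fitted, after a 30 min, 25° C agonist incubation in HIT-T15 hamster islet cells expressing GPR119 natively. Medium contained 0.5 mM IBMX and 0.5 mg/ml BSA; 9000 cells/well.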
(Changes in cAMP serve as a functional read-out for many G protein-coupled receptors.)
As for `CC(C)CS(=O)(=O)N1CCC(n2ncc3c(Oc4ccc(S(C)(=O)=O)cc4)ncnc32)CC1` [Example 171, 4-(4-Methanesulfonyl-phenoxy)-1-[1-(2-methyl-propane-1-sulfonyl)-piperidin-4-yl]-1H-pyrazolo[3,4-d]pyrimidine], it took 0.4 µM to reach a half-maximal effect (EC50). For `CC(C)OC(=O)N1CCC(n2ncc3c(Nc4cc(F)c(F)cc4F)ncnc32)CC1` [Example 2, 4-[4-(2,4,5-Trifluoro-phenylamino)-pyrazolo[3,4-d]pyrimidin-1-yl]-piperidine-1-carboxylic acid isopropyl ester] the value was 3.1 µM. The same measure for `CC(=O)Nc1ccc(Oc2ncnc3c2cnn3C2CCN(C(=O)OC(C)C)CC2)cc1` [Example 25, 4-[4-(4-Acetylamino-phenoxy)-pyrazolo[3,4-d]pyrimidin-1-yl]-piperidine-1-carboxylic acid isopropyl ester]: 0.46 µM; for `CS(=O)(=O)c1ccc(Oc2ncnc3c2cnn3C2CCN(C(=O)C3CCC3)CC2)cc1` [Example 140, Cyclobutyl-{4-[4-(4-methanesulfonyl-phenoxy)-pyrazolo[3,4-d]pyrimidin-1-yl]-piperidin-1-yl}-methanone]: 0.75 µM; for `Cn1nc(Oc2ncnc3c2cnn3C2CCN(C(=O)OC(C)(C)C)CC2)ccc1=O` [Example 102, 4-[4-(1-Methyl-6-oxo-1,6-dihydro-pyridazin-3-yloxy)-pyrazolo[3,4-d]pyrimidin-1-yl]-piperidine-1-carboxylic acid tert-butyl ester]: 0.47 µM. For `CS(=O)(=O)c1ccc(Oc2ncnc3c2cnn3C2CCN(Cc3ccc(F)cc3)CC2)cc1` [Example 159, 1-[1-(4-Fluoro-benzyl)-piperidin-4-yl]-4-(4-methanesulfonyl-phenoxy)-1H-pyrazolo[3,4-d]pyrimidine] the value was 0.2 µM; for `Cc1cc(C(=O)N2CCC(n3ncc4c(Oc5ccc(S(C)(=O)=O)cc5)ncnc43)CC2)no1` [Example 153, {4-[4-(4-Methanesulfonyl-phenoxy)-pyrazolo[3,4-d]pyrimidin-1-yl]-piperidin-1-yl}-(5-methyl-isoxazol-3-yl)-methanone], 4.4 µM.

Compound `CC(C)OC(=O)N1CCC(n2ncc3c(Oc4cc(F)c(F)cc4F)ncnc32)CC1` [Example 16, 4-[4-(2,4,5-Trifluoro-phenoxy)-pyrazolo[3,4-d]pyrimidin-1-yl]-piperidine-1-carboxylic acid isopropyl ester] registered an EC50 of 0.21 µM. For the compound `CC(C)(C)OC(=O)N1CCC(n2ncc3c(Oc4ccc(C(N)=O)cc4)ncnc32)CC1` [Example 62, 4-[4-(4-Carbamoyl-phenoxy)-pyrazolo[3,4-d]pyrimidin-1-yl]-piperidine-1-carboxylic acid tert-butyl ester], the EC50 came to 0.65 µM. The compound `CC(C)OC(=O)N1CCC(n2ncc3c(Oc4ccccc4)ncnc32)CC1` [Example 15, 4-(4-Phenoxy-pyrazolo[3,4-d]pyrimidin-1-yl)-piperidine-1-carboxylic acid isopropyl ester] came in with an EC50 of 2 µM. With `CS(=O)(=O)c1ccc(Nc2ncnc3c2cnn3C2CCN(Cc3ccccc3)CC2)c(F)c1` [Example 11, [1-(1-Benzyl-piperidin-4-yl)-1H-pyrazolo[3,4-d]pyrimidin-4-yl]-(2-fluoro-4-methanesulfonylphenyl)-amine], the EC50 was determined as 2.5 µM. The same measure for `CC(C)OC(=O)N1CCC(n2ncc3c(Oc4ccccc4C#N)ncnc32)CC1` [Example 19, 4-[4-(2-Cyano-phenoxy)-pyrazolo[3,4-d]pyrimidin-1-yl]-piperidine-1-carboxylic acid isopropyl ester]: 0.71 µM; for `CC(C)(C)OC(=O)N1CCCC(n2ncc3c(Oc4ccc(S(C)(=O)=O)cc4)ncnc32)C1` (single isomer, unassigned) [Example 89]: 0.21 µM; for `CS(=O)(=O)c1ccc(Oc2ncnc3c2cnn3C2CCN(C(=O)c3ccccc3)CC2)cc1` [Example 149, {4-[4-(4-Methanesulfonyl-phenoxy)-pyrazolo[3,4-d]pyrimidin-1-yl]-piperidin-1-yl}-phenylmethanone]: 1.7 µM. The same measure for `CC(C)(C)OC(=O)N1CCC(n2ncc3c(Oc4ccc(S(C)(=O)=O)cc4F)ncnc32)CC1` [Example 60, 4-[4-(2-Fluoro-4-methanesulfonyl-phenoxy)-pyrazolo[3,4-d]pyrimidin-1-yl]-piperidine-1-carboxylic acid tert-butyl ester]: 0.048 µM; for `Cc1ncccc1Oc1ncnc2c1cnn2C1CCN(C(=O)OCc2ccccc2)CC1` [Example 124, 4-[4-(2-Methyl-pyridin-3-yloxy)-pyrazolo[3,4-d]pyrimidin-1-yl]-piperidine-1-carboxylic acid benzyl ester]: 0.24 µM. For `CC(C)(C)OC(=O)N1CCC(n2ncc3c(Oc4ccc(S(N)(=O)=O)cc4)ncnc32)CC1` [Example 56, 4-[4-(4-Sulfamoyl-phenoxy)-pyrazolo[3,4-d]pyrimidin-1-yl]-piperidine-1-carboxylic acid tert-butyl ester] the value was 0.28 µM; for `Cc1nn(C2CCN(C(=O)OC(C)C)CC2)c2ncnc(Oc3cc(F)c(F)cc3F)c12` [Example 17, 4-[3-Methyl-4-(2,4,5-trifluoro-phenoxy)-pyrazolo[3,4-d]pyrimidin-1-yl]-piperidine-1-carboxylic acid isopropyl ester], 0.7 µM. In turn, `CC(C)(C)OC(=O)N1CCC(n2ncc3c(Oc4ccc(S(C)(=O)=O)cc4)ncnc32)CC1` [Example 59, 4-[4-(4-Methanesulfonyl-phenoxy)-pyrazolo[3,4-d]pyrimidin-1-yl]-piperidine-1-carboxylic acid tert-butyl ester] yielded an EC50 of 0.043 µM. The same measure for `C[S+]([O-])c1ccc(Oc2ncnc3c2cnn3C2CCN(C(=O)OC(C)(C)C)CC2)cc1` (stereo not drawn) [Example 58, 4-[4-(4-Methanesulfinyl-phenoxy)-pyrazolo[3,4-d]pyrimidin-1-yl]-piperidine-1-carboxylic acid tert-butyl ester]: 0.42 µM; for `CC(C)(C)OC(=O)N1CCC(n2ncc3c(Oc4c(C#N)ccc(F)c4F)ncnc32)CC1` [Example 49, 4-[4-(6-Cyano-2,3-difluoro-phenoxy)-pyrazolo[3,4-d]pyrimidin-1-yl]-piperidine-1-carboxylic acid tert-butyl ester]: 0.048 µM. For `CC(C)(C)OC(=O)N1CCC(n2ncc3c(Oc4ccc(Cl)c(C(F)(F)F)c4)ncnc32)CC1` [Example 55, 4-[4-(4-Chloro-3-trifluoromethyl-phenoxy)-pyrazolo[3,4-d]pyrimidin-1-yl]-piperidine-1-carboxylic acid tert-butyl ester] the value was 0.15 µM; for `CC(C)(C)OC(=O)N1CCC(n2ncc3c(Oc4ccc(C(F)(F)F)cc4Cl)ncnc32)CC1` [Example 54, 4-[4-(2-Chloro-4-trifluoromethyl-phenoxy)-pyrazolo[3,4-d]pyrimidin-1-yl]-piperidine-1-carboxylic acid tert-butyl ester], 0.083 µM; for `CC(C)OC(=O)N1CCC(n2ncc3c(Oc4ccc(=O)n(C)n4)ncnc32)CC1` [Example 31, 4-[4-(1-Methyl-6-oxo-1,6-dihydro-pyridazin-3-yloxy)-pyrazolo[3,4-d]pyrimidin-1-yl]-piperidine-1-carboxylic acid isopropyl ester], 3.5 µM.
